Test results taken from ChEMBL document CHEMBL4680080 (J Med Chem, 2016).
In brackets after ≈: the same amount, converted by molar mass. Values belong to the compound of their own block, whether it stands above or below them.

Experiments:
[1] = Stability in bile of fistula Wistar-Han rat model assessed as drug recovery of unmodified compound at 60 umol/kg, iv by HPLC-ES-MS/MS analysis; assay type: ADME, organism-based; conditions: at 60 µmol/kg, read-out: Drug recovery
physchem = conditions: water
[2] = Drug metabolism in bile of fistula Wistar-Han rat model assessed as taurine conjugate formation at 60 umol/kg, iv by HPLC-ES-MS/MS analysis; assay type: ADME, organism-based; conditions: in vivo, dose 60 µmol/kg
[3] = Drug metabolism in liver of fistula Wistar-Han rat model assessed as drug recovery of taurine conjugate at 60 umol/kg, iv by HPLC-ES-MS/MS analysis; assay type: ADME, organism-based; conditions: in vivo, dose 60 µmol/kg
[4] = Stability in fistula Wistar-Han rat model assessed as drug stability in intestinal bacteria at 60 umol/kg, iv by HPLC-ES-MS/MS analysis; assay type: ADME, organism-based, Intestine; conditions: in vivo, at 60 µmol/kg

dose excreted [1]: 10%
SMILES: C[C@H](CCC(=O)O)[C@H]1CC[C@H]2[C@@H]3[C@H](O)C[C@@H]4C[C@H](O)CC[C@]4(C)[C@H]3C[C@H](O)[C@]12C [CHOLIC ACID]

SMILES: C[C@H](CCC(=O)O)[C@H]1CC[C@H]2[C@@H]3[C@@H](O)C[C@@H]4C[C@H](O)CC[C@]4(C)[C@H]3CC[C@]12C [URSODIOL]
solubility (physchem): 7 µM (≈ 2.75 µg/mL) | Drug metabolism [2]: Metabolite_Detected

SMILES: C[C@H](CCC(=O)O)[C@H]1CC[C@H]2[C@@H]3[C@H](O)C[C@@H]4C[C@H](O)CC[C@]4(C)[C@H]3CC[C@]12C [CHENODIOL]
Drug metabolism [2]: Metabolite_Detected

SMILES: CC[C@H]1[C@@H](O)[C@@H]2[C@H](CC[C@]3(C)[C@@H]([C@H](C)CCC(=O)O)CC[C@@H]23)[C@@]2(C)CC[C@@H](O)C[C@@H]12 [OBETICHOLIC ACID]
solubility (physchem): 9 µM (≈ 3.79 µg/mL) | Drug metabolism [2]: Metabolite_Detected

SMILES: CC[C@H]1[C@@H](O)[C@@H]2[C@H]([C@@H](O)C[C@]3(C)[C@@H]([C@H](C)CCC(=O)O)CC[C@@H]23)[C@@]2(C)CC[C@@H](O)C[C@@H]12
Drug metabolism [3]: Metabolite_Notdetected | solubility (physchem): 150 µM (≈ 65.5 µg/mL) | Stabilty [4]: Stable | dose excreted [1]: 50%
